Data set [1] can be described thus: Pharmacokinetic study in mice. It is filed as in vivo, mice (male C57BL/6J). The conditions noted are these: for adverse effects during the study / level in blood circulation 24 h after treatment / AUCs: i.p.; for adverse effects during the study: 10 mg/kg single dose; for level in blood circulation 24 h after treatment / AUCs / concentration at 8 h / Cmax / Tmax / half-life: 10 mg/kg; for AUCs / Cmax / Tmax: blood; for concentration at 8 h / Cmax / Tmax / half-life: male, C57BL/6J, mouse, whole blood; for concentration at 8 h: read-out: average blood concentration 8 h after administration; for half-life: noncompartmental analysis, read-out: T ½ (converted). As for the experimental part:
In order to assess the efficacy potential of MYC degraders in animal models, pharmacokinetic studies were carried out in mice (Figure 6A,B). Following intraperitoneal (i.p.) administration of selected compounds, CSI86, CSI135, and CSI107 at 10 mg/kg, blood samples were collected at different time points until 24 h post-drug administration, and concentrations were determined via LC-MS/MS.
Animals that were used for the study were male C57BL/6J (n = 7) at the age of 6–8 weeks (average weight = 20–25 g). Each PROTAC was administered at 10 mg/kg, and the dosing volume per animal was 200 μL. The vehicle for CSI86, CSI107, and […], respectively, was corn oil/10% DMSO, and the administration was i.p. CSI86 was also administered PO at the same dose using 0.5% carboxymethyl cellulose (CMC) as a vehicle in water. Whole blood from two control mice was used for the preparation of standard solutions.
A serial tail bleeding protocol was performed for the collection of blood samples. Blood samples (10 μL) were collected at selected time points (15 min, 30 min, 1 h, 2 h, 4 h, 6 h, 8 h, and 24 h) in tubes containing 40 μL of sodium citrate (0.1 M, pH 4.5) and stored at −80 °C until the day of the analysis.
For the calculation of T1/2, a noncompartmental pharmacokinetics analysis was used via the online application “Dash App Gallery Pharmacokinetics Calculator.” […]
Characterization and Quantitative Analysis of PROTACs by Liquid Chromatography-Mass Spectrometry […]
For detection and quantification of the PROTACs in medium and biological samples, LC-MS/MS methodologies were developed. Mass spectrometry was performed on a Triple Quad 5500 + LC-MS/MS system fitted with a TurboIonSpray source and a hybrid triple quadrupole/linear ion trap mass spectrometer. HPLC was performed using an Exion LC AB Sciex system with a temperature-controlled column compartment and an autosampler. A C8 column (SunFire 2.1 x 50 mm, 3.5 μm) (Waters, MA, USA) was used at a flow rate of 0.3 mL/min for the separation of the analytes of interest. The mobile phase consisted of A: 10% ACN, 90% water, 2 mM ammonium acetate, and 0.1% FA and B: 90% ACN, 10% water, 2 mM ammonium acetate, and 0.1% FA, the injection volume was 10 μL. Elution of CSI86 PROTAC was achieved by a gradient of solvent A – solvent B described as follows: 100% A (0.0 - 0.5 min), 20% A (1.0 – […]
3.0 min), 100% A (3.1 – 5.1 min).
1040.5, for the CSI86 PROTAC with exact mass of 1039 (g/mol). Elution of CSI107 PROTAC was achieved by a gradient of solvent A – solvent B described as follows: 80% A (0.0 - 0.5 min), 15% A (1.5 – 3.5 min), […]
the CSI107 PROTAC with an exact mass of 1053 (g/mol).
Table S1: Optimized parameters for the LC-MS/MS analysis. […]
Detection protein degraders in mouse blood by LC-MS/MS analysis
For the LC-MS/MS analysis of the PK study, sample preparation was performed as follows.
Double Blank Blank + IS Standards
50 μL blood 50 μL blood 50 μL blood
10 μL ACN: H 2O 10 μL ACN: H 2O 10 μL std
300 μL of cold ACN were added in all samples for protein precipitation, followed by centrifugation at 13000 rpm for 10 min. The supernatant was transferred in glass tubes and evaporated at 55 °C for approximately 1 h. The samples were reconstituted in Mobile Phase A (90% H2O-10% ACN, 0.1% FA, 2 mM ammonium acetate) and the circulating amount of PROTAC was determined by LC-MS/MS analysis using a stable internal standard such as Warfarin or BETd-260 respectively. Gradient (20% A – 80% B) LC-MS/MS conditions were applied and the concentration range for the standard curve was 1 - 10.000 ng/mL. […]

Another data set concerns SKBR3 cells. As to the kind of experiment: Cell viability (MTT) assay, SKBR3. The conditions noted are these: Homo sapiens, SK-BR-3, 72 h, read-out: IC50 (antiproliferative effect). It is filed as cell-based, human. Here is the method: The antiproliferative activity of the synthesized compounds was tested in cell viability assays optimally set up for various cancer cell lines (results are depicted in Table 2, n = 3, average IC50 (μM) ± SD).
Cells were plated at a density of 5 × 10^3 cells per well on 96-well plates. After 24 h of incubation (37 °C, 5% CO2), the cell medium was removed, and compounds were added at selected concentrations (0.1–100 μM), followed by incubation for 72 h. Control cells were treated with 0.4% DMSO medium to match the conditions in the wells where drugs were added. After 72 h, the medium was removed, and the 3-(4,5-dimethylthiazol-2-yl)-2,5-diphenyltetrazolium bromide (MTT) solution (0.3 mg/mL in PBS) was added to cells for 3 h under no light conditions. The MTT solution was removed, and the formazan crystals were dissolved in 100 μL of DMSO. The optical density was measured at 570 nm with a reference wavelength of 690 nm using an absorbance microplate reader (SpectraMax 190, Molecular Devices, Sunnyvale, CA, USA). The half-maximal inhibitory concentration (IC50) was calculated based on a four-parameter logistic equation, generating a cell viability curve, using GraphPad Prism 6.01 (GraphPad Software, Inc.). Two concentrations of an established drug, Docetaxel (100 nM and 1 nM), were used in each experiment as a positive control. The resulting absorbance values were used instead of IC50 calculation. Each point was the result of three independent experiments performed in triplicate.

Consider 3 compounds from article PMC11650737, “Developing MYC Degraders Bearing the Von Hippel–Lindau Ligand to Target the “Undruggable” MYC” (ACS Pharmacology & Translational Science, 2024).

Where “and” joins values, the source holds several entries; their conditions need not be identical. Equal values may be shown once.

One may read the Cmax as the maximum level reached in the sampled fluid or tissue. The Tmax is the time from dosing to the highest level. The IC50 is the concentration needed to halve the response being measured. Take `Cc1ncsc1-c1ccc(CNC(=O)[C@@H]2C[C@@H](O)CN2C(=O)[C@@H](NC(=O)CCC(=O)NCCCOc2ccc(-c3cc(C(F)(F)F)nn3C)c(O)c2-c2cc(C(F)(F)F)cc(C(F)(F)F)c2)C(C)(C)C)cc1` [CSI86]: in data set [1], the “adverse effects during the study” value is recorded as “no adverse effects were reported”, the “level in blood circulation 24 h after treatment” value (from here on “level in blood circulation 24 h”) was “evident levels of the degrader being present in blood circulation” and the AUCs was 8,4 h x μg/mL. Moreover, in data set [1] (ip), the concentration at 8 h is ~500 ng/mL and ~480 nM; the Cmax is 713 ng/mL and 686 nM; the Tmax came to 2 h; the half-life is 7.4 h. The Cmax in data set [1] (oral gavage (PO)) is less than 100 ng/mL. The IC50 with SKBR3 cells came out at 15 ± 4 µM.
Consider `Cc1ncsc1-c1ccc(CNC(=O)[C@@H]2C[C@@H](O)CN2C(=O)[C@@H](NC(=O)CCCC(=O)NCCCOc2ccc(-c3cc(C(F)(F)F)nn3C)c(O)c2-c2cc(C(F)(F)F)cc(C(F)(F)F)c2)C(C)(C)C)cc1` [CSI107], for which, in data set [1], the “adverse effects during the study” value was “no adverse effects were reported”, the “level in blood circulation 24 h” value is on record as “evident levels of the degrader being present in blood circulation” and the AUCs is 3,4 h x μg/mL. In data set [1] (ip), the concentration at 8 h was ~150 ng/mL and ~140 nM; the maximum concentration (Cmax) was 413 ng/mL and 392 nM; the time to peak (Tmax) came to 2 h; the half-life was 5 ± 0.5 h. For the same compound, the 50% inhibitory concentration (IC50) in the data set on SKBR3 cells came out at 14 ± 2 µM.
Consider `Cc1ncsc1-c1ccc(CNC(=O)[C@@H]2C[C@@H](O)CN2C(=O)[C@@H](NC(=O)COCCOCC(=O)NCCCOc2ccc(-c3cc(C(F)(F)F)nn3C)c(O)c2-c2cc(C(F)(F)F)cc(C(F)(F)F)c2)C(C)(C)C)cc1` [CSI135], for which, in data set [1], the “adverse effects during the study” value was “no adverse effects were reported”, the “level in blood circulation 24 h” value is on record as “evident levels of the degrader being present in blood circulation” and the AUCs is reported as 6 h x μg/mL. For the same compound, in data set [1] (ip), the highest concentration (Cmax) was 699 ng/mL and 636 nM; the time to peak (Tmax) is 2 h; the half-life is 7.6 h.
